Reference: PubChem BioAssay (NCI)
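Cells were grown in 96-well plates and exposed to each compound for 48 hours at five concentrations; endpoints were interpolated linearly between bracketing concentrations, or set to the highest concentration if not reached. The concentration for 50% growth inhibition is given as GI50. The concentration for full growth arrest is given as TGI.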

What was measured:
Test in all cases: NCI tumour cell line growth inhibition, 48 h; in the data active = GI50 below about 0.43 µM; inactive = the rest
OVCAR-4 ovarian = test system: OVCAR-4 ovarian
OVCAR-3 ovarian = test system: OVCAR-3 ovarian
NCI-H23 lung = test system: NCI-H23 lung
LOX IMVI melanoma = test system: LOX IMVI melanoma
ACHN renal = test system: ACHN renal
NCI-H226 lung = test system: NCI-H226 lung
SF-268 CNS = test system: SF-268 CNS
UO-31 renal = test system: UO-31 renal
EKVX NSCLC = test system: EKVX NSCLC
SK-MEL-28 melanoma = test system: SK-MEL-28 melanoma
HL-60(TB) leukemia = test system: HL-60(TB) leukemia
KM12 colon = test system: KM12 colon
M14 melanoma = test system: M14 melanoma
786-0 renal = test system: 786-0 renal
PC-3 prostate = test system: PC-3 prostate
SK-OV-3 ovarian = test system: SK-OV-3 ovarian
HT29 colon = test system: HT29 colon
NCI-H460 lung = test system: NCI-H460 lung
T-47D breast = test system: T-47D breast
SK-MEL-5 melanoma = test system: SK-MEL-5 melanoma
MALME-3M melanoma = test system: MALME-3M melanoma
SW-620 colon = test system: SW-620 colon
SK-MEL-2 melanoma = test system: SK-MEL-2 melanoma
HCT-15 colon = test system: HCT-15 colon
NCI/ADR-RES ovarian = test system: NCI/ADR-RES ovarian
UACC-257 melanoma = test system: UACC-257 melanoma
K-562 leukemia = test system: K-562 leukemia
HOP-92 NSCLC = test system: HOP-92 NSCLC
MDA-MB-231 breast = test system: MDA-MB-231 breast
OVCAR-8 ovarian = test system: OVCAR-8 ovarian
U251 CNS = test system: U251 CNS
RPMI-8226 leukemia = test system: RPMI-8226 leukemia
BT-549 breast = test system: BT-549 breast
SN12C renal = test system: SN12C renal
OVCAR-5 ovarian = test system: OVCAR-5 ovarian
MDA-MB-435 = test system: MDA-MB-435
SNB-75 CNS = test system: SNB-75 CNS
UACC-62 melanoma = test system: UACC-62 melanoma
NCI-H522 lung = test system: NCI-H522 lung
HCC-2998 colon = test system: HCC-2998 colon
SF-295 CNS = test system: SF-295 CNS
MDA-MB-468 breast = test system: MDA-MB-468 breast
IGROV1 ovarian = test system: IGROV1 ovarian
TK-10 renal = test system: TK-10 renal
COLO 205 colon = test system: COLO 205 colon
MOLT-4 leukemia = test system: MOLT-4 leukemia
MCF7 breast = test system: MCF7 breast
A498 renal = test system: A498 renal
SNB-19 CNS = test system: SNB-19 CNS
A549 NSCLC = test system: A549 NSCLC
SF-539 CNS = test system: SF-539 CNS
CAKI-1 renal = test system: CAKI-1 renal
HCT-116 colon = test system: HCT-116 colon
CCRF-CEM leukemia = test system: CCRF-CEM leukemia
HOP-62 NSCLC = test system: HOP-62 NSCLC
DU-145 prostate = test system: DU-145 prostate
HS 578T breast = test system: HS 578T breast
RXF 393 renal = test system: RXF 393 renal

C=C1CCC2C3(C)COC(c4ccco4)OC3CCC2(C)C1CC(Sc1ccccc1)C1=CCOC1=O (stereo unspecified)
16.9 µM: TGI (BT-549 breast)
16.7 µM: TGI (MDA-MB-468 breast)
15.6 µM: TGI (SF-539 CNS)
52.9 µM: TGI (HCT-15 colon)
6.95 µM: TGI (NCI/ADR-RES ovarian)
22 µM: TGI (SK-MEL-2 melanoma)
26.1 µM: TGI (HT29 colon)
8.23 µM: TGI (RPMI-8226 leukemia)
62.6 µM: TGI (NCI-H226 lung)
88.9 µM: TGI (NCI-H23 lung)
91 µM: TGI (OVCAR-5 ovarian)
4 µM: TGI (LOX IMVI melanoma)
73.6 µM: TGI (DU-145 prostate)
> 100 µM: TGI (OVCAR-4 ovarian) | TGI (ACHN renal) | TGI (SF-268 CNS) | TGI (UO-31 renal) | TGI (EKVX NSCLC) | TGI (SK-MEL-28 melanoma) | TGI (KM12 colon) | TGI (PC-3 prostate) | TGI (SK-OV-3 ovarian) | TGI (NCI-H460 lung) | TGI (T-47D breast) | TGI (MALME-3M melanoma) | TGI (UACC-257 melanoma) | TGI (K-562 leukemia) | TGI (HOP-92 NSCLC) | TGI (SN12C renal) | TGI (MDA-MB-435) | TGI (SNB-75 CNS) | TGI (HCC-2998 colon) | TGI (SF-295 CNS) | TGI (IGROV1 ovarian) | TGI (TK-10 renal) | TGI (COLO 205 colon) | TGI (MOLT-4 leukemia) | TGI (A498 renal) | TGI (SNB-19 CNS) | TGI (A549 NSCLC) | TGI (CAKI-1 renal) | TGI (CCRF-CEM leukemia) | TGI (HOP-62 NSCLC) | TGI (HS 578T breast)
53.2 µM: TGI (MDA-MB-231 breast)
12.5 µM: TGI (OVCAR-3 ovarian)
36.4 µM: TGI (HL-60(TB) leukemia)
inactive: GI50 (OVCAR-4 ovarian) 14.7 µM | GI50 (OVCAR-3 ovarian) 3.78 µM | GI50 (NCI-H23 lung) 21.5 µM | GI50 (LOX IMVI melanoma) 1.81 µM | GI50 (ACHN renal) 14.1 µM | GI50 (NCI-H226 lung) 6.22 µM | GI50 (SF-268 CNS) 59.5 µM | GI50 (UO-31 renal) 13.4 µM | GI50 (EKVX NSCLC) 11 µM | GI50 (SK-MEL-28 melanoma) 28.5 µM | GI50 (HL-60(TB) leukemia) 2.82 µM | GI50 (KM12 colon) 12.1 µM | GI50 (M14 melanoma) 15.7 µM | GI50 (786-0 renal) 14.3 µM | GI50 (PC-3 prostate) 6.71 µM | GI50 (SK-OV-3 ovarian) 80.1 µM | GI50 (HT29 colon) 4.26 µM | GI50 (NCI-H460 lung) 21.7 µM | GI50 (T-47D breast) 14.4 µM | GI50 (SK-MEL-5 melanoma) 10.8 µM | GI50 (MALME-3M melanoma) 35.6 µM | GI50 (SW-620 colon) 3.43 µM | GI50 (SK-MEL-2 melanoma) 7.3 µM | GI50 (HCT-15 colon) 6.66 µM | GI50 (NCI/ADR-RES ovarian) 2.6 µM | GI50 (UACC-257 melanoma) 21.9 µM | GI50 (K-562 leukemia) 3.62 µM | GI50 (HOP-92 NSCLC) 16.5 µM | GI50 (MDA-MB-231 breast) 14.3 µM | GI50 (OVCAR-8 ovarian) 3.05 µM | GI50 (U251 CNS) 5.88 µM | GI50 (RPMI-8226 leukemia) 2.36 µM | GI50 (BT-549 breast) 3.97 µM | GI50 (SN12C renal) 9.46 µM | GI50 (OVCAR-5 ovarian) 21.7 µM | GI50 (MDA-MB-435) 8.94 µM | GI50 (SNB-75 CNS) 8.98 µM | GI50 (UACC-62 melanoma) 12.4 µM | GI50 (NCI-H522 lung) 7.51 µM | GI50 (HCC-2998 colon) 21.1 µM | GI50 (SF-295 CNS) 25.7 µM | GI50 (MDA-MB-468 breast) 3.8 µM | GI50 (IGROV1 ovarian) 17.8 µM | GI50 (TK-10 renal) 97.7 µM | GI50 (COLO 205 colon) 24.4 µM | GI50 (MOLT-4 leukemia) 4.41 µM | GI50 (MCF7 breast) 3.75 µM | GI50 (A498 renal) > 100 µM | GI50 (SNB-19 CNS) 42.3 µM | GI50 (A549 NSCLC) 18.7 µM | GI50 (SF-539 CNS) 4.12 µM | GI50 (CAKI-1 renal) 18.4 µM | GI50 (HCT-116 colon) 4.39 µM | GI50 (CCRF-CEM leukemia) 2.12 µM | GI50 (HOP-62 NSCLC) 23.5 µM | GI50 (DU-145 prostate) 9.01 µM | GI50 (HS 578T breast) 35.7 µM | GI50 (RXF 393 renal) 8.05 µM
20.3 µM: TGI (U251 CNS)
15 µM: TGI (SW-620 colon)
17.9 µM: TGI (HCT-116 colon)
41 µM: TGI (MCF7 breast)
49.1 µM: TGI (RXF 393 renal)
22.9 µM: TGI (SK-MEL-5 melanoma)
14.3 µM: TGI (OVCAR-8 ovarian)
31.8 µM: TGI (UACC-62 melanoma)
20.4 µM: TGI (NCI-H522 lung)
34.1 µM: TGI (786-0 renal)
69.2 µM: TGI (M14 melanoma)
